This note sets out measurements from patent publication US9763445B2, “Safened herbicidal compositions comprising a pyridine carboxylic acid herbicide” (Dow AgroSciences, LLC, priority 2014, dated 2017).

In assay [1] the test system is giant foxtail (SETFA). The assay can be described thus: Postemergence greenhouse trial, % visual injury on giant foxtail. The class given is in vivo, Setaria faberi. As to conditions: alone, 35 g/ha. Here is the method:
(§1) Seeds of the desired test plant species were planted in Sun Gro MetroMix® 306 planting mixture, which typically has a pH of 6.0 to 6.8 and an organic matter content of about 30 percent, in plastic pots with a surface area of 103.2 square centimeters (cm^2). When required to ensure good germination and healthy plants, a fungicide treatment and/or other chemical or physical treatment was applied. The plants were grown for 7-36 days (d) in a greenhouse with an approximate 14-hour (h) photoperiod which was maintained at about 23° C. during the day and 22° C. during the night. Nutrients and water were added on a regular basis and supplemental lighting was provided with overhead metal halide 1000-Watt lamps as necessary. The plants were employed for testing when they reached the second or third true leaf stage.
Weighed amounts of technical material were dissolved in a volume of 97:3 volume per volume (v/v) acetone/dimethyl sulfoxide (DMSO) to stock solutions. […] The concentrated stock solutions were diluted with an aqueous mixture of 1.5% v/v of Agri-dex crop oil concentrate to provide the appropriate application rates. Compound requirements are based upon a 12 milliliter (mL) application volume at a rate of 187 liters per hectare (L/ha). […]
(§2) The treated plants and control plants were placed in a greenhouse as described above and watered by sub-irrigation to prevent wash-off of the test compounds. After 20-22 d, the condition of the test plants as compared with that of the control plants was determined visually and scored on a scale of 0 to 100 percent where 0 corresponds to no injury and 100 corresponds to complete kill. The condition of the test plants was compared with that of the control plants as determined visually and scored on a scale of 0 to 100 percent, where 0 corresponds to no injury and 100 corresponds to complete kill. […]
The safener cloquintocet-mexyl was combined with compound 1, compound 2, compound 4, compound 5, and compound 6, and applied to corn/maize (ZEAMX) and spring wheat (TRZAS) and the phytotoxicity of the herbicidal compositions was measured. […]

For assay [2], the system named is common sunflower (HELAN). The assay can be described thus: Postemergence greenhouse trial, % visual injury on common sunflower. It counts as in vivo, Helianthus annuus. Here is the method:
as §1
(§3) Weighed amounts of technical material were dissolved in a volume of 97:3 volume per volume (v/v) acetone/dimethyl sulfoxide (DMSO) to stock solutions. […] The concentrated stock solutions were diluted with an aqueous mixture of 1.5% v/v of Agri-dex crop oil concentrate to provide the appropriate application rates. Compound requirements are based upon a 12 milliliter (mL) application volume at a rate of 187 liters per hectare (L/ha). Stocks solutions of the safeners were prepared following the same procedure. Spray solutions of the safeners and experimental compound mixtures were prepared by adding the stock solutions to the appropriate amount of dilution solution to form a 12 mL spray solution in two-way combinations. Formulated compounds were applied to the plant material with an overhead Mandel track sprayer equipped with 8002E nozzles calibrated to deliver 187 L/ha over an application area of 0.503 square meters (m^2) at a spray height of 18 inches (43 centimeters (cm)) above average plant canopy. Control plants were sprayed in the same manner with the solvent blank. All herbicide application (component a) rates are in g ae/ha and all safener (component b) rates are in g ai/ha.
(§4) The treated plants and control plants were placed in a greenhouse as described above and watered by sub-irrigation to prevent wash-off of the test compounds. After 20-22 d, the condition of the test plants as compared with that of the control plants was determined visually and scored on a scale of 0 to 100 percent where 0 corresponds to no injury and 100 corresponds to complete kill. The condition of the test plants was compared with that of the control plants as determined visually and scored on a scale of 0 to 100 percent, where 0 corresponds to no injury and 100 corresponds to complete kill. Colby's equation was used to determine the herbicidal effects expected from the mixtures.
The safener cloquintocet-acid and a number of agriculturally acceptable esters and salts (-mexyl, -dimethylammonium salt and -triethylammonium salt) were combined in varying ratios with compound 1 and applied to spring wheat (TRZAS), winter wheat (TRZAW), and spring barley (HORVS), and the phytotoxicity of the herbicidal compositions was measured. In addition, the efficacy of the herbicidal composition on pigweed (AMARE, Amaranthus retroflexus), nutsedge (CYPES, Cyperus esculentus), common sunflower (HELAN, Helianthus annuus), and common sorghum (SORVU, Sorghum vulgare).

The test system of assay [3] is wild pansy (VIOTR). In words: Postemergence greenhouse trial, % visual injury on wild pansy. The class given is in vivo, Viola tricolor. Here is the method: as §1, §3
as §4, with “mixtures. […]” for “mixtures.”

In assay [4] the test system is poinsettia (EPHHL). The assay can be described thus: Postemergence greenhouse trial, % visual injury on poinsettia. It counts as in vivo, Euphorbia heterophylla. Particulars: alone, 35 g/ha. The procedure:
as §1
Weighed amounts of technical material were dissolved in a volume of 97:3 volume per volume (v/v) acetone/dimethyl sulfoxide (DMSO) to stock solutions. […] The concentrated stock solutions were diluted with an aqueous mixture of 1.5% v/v of Agri-dex crop oil concentrate to provide the appropriate application rates. Compound requirements are based upon a 12 milliliter (mL) application volume at a rate of 187 liters per hectare (L/ha). Stocks solutions of the safeners were prepared following the same procedure. […]
as §2
The safener cloquintocet-mexyl was combined with compound 1, compound 2, compound 4, compound 5, and compound 6, and applied to corn/maize (ZEAMX) and spring wheat (TRZAS) and the phytotoxicity of the herbicidal compositions was measured. In addition, the efficacy of the herbicidal composition on velvetleaf (ABUTH, Abutilon theophrasti), pigweed (AMARE, Amaranthus retroflexus), winter rape (BRSNW, Brassica napus), lambsquarters (CHEAL, Chenopodium album), thistle (CIRAR, Cirsium arvense), nutsedge (CYPES, Cyperus esculentus), poinsettia (EPHHL, Euphorbia heterophylla), wild buckwheat (POLCO, Polygonum convolvulus), giant foxtail (SETFA, Setaria faberi), and chickweed (STEME, Stellaria media) was evaluated. […]

In assay [5] the test system is common sorghum (SORVU). The assay can be described thus: Postemergence greenhouse trial, % visual injury on common sorghum. Particulars: for % visual injury, observed (Ob): SORVU. It counts as in vivo, Sorghum vulgare. In outline: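 Greenhouse crops at second to third true leaf stage sprayed postemergence at 187 L/ha with herbicide (g ae/ha) plus safener (g ai/ha) in acetone/DMSO diluted into 1.5% v/v Agri-dex. Injury scored visually versus solvent-blank controls after 20-22 d, 0 (none) to 100% (complete kill); expected mixture effects by Colby's equation.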

The test system of assay [6] is green foxtail (SETVI). The assay can be described thus: Postemergence greenhouse trial, % visual injury on green foxtail. The class given is in vivo, Setaria viridis.

In the case of `CCCCCC(C)OC(=O)COc1ccc(Cl)c2cccnc12` (centres unmarked) [CQC-m, cloquintocet-mexyl, reference compound], the “% visual injury, Ob” value is reported as 0% in assay [1]; 0% in assay [3] (VIOTR, 4.375 g/ha, applied alone); 0% in assay [3] (VIOTR, 8.75 g/ha, applied alone); 0% in assay [3] (VIOTR, 17.5 g/ha, applied alone); 0% in assay [3] (VIOTR, 35 g/ha, applied alone); 0% in assay [3] (VIOTR, 70 g/ha, applied alone). For the same compound, the “% visual injury, Ob” value in assay [3] (VIOTR, compound 0 g/ha, CQC-m 4.375 g/ha) was determined as 0%; in assay [3] (VIOTR, compound 0 g/ha, CQC-m 8.75 g/ha) it was 0%; in assay [3] (VIOTR, compound 0 g/ha, CQC-m 17.5 g/ha), 0%; in assay [3] (VIOTR, compound 0 g/ha, CQC-m 35 g/ha), 0%; in assay [3] (VIOTR, compound 0 g/ha, CQC-m 70 g/ha), 0%; in assay [3] (alone, 35 g/ha) it was 0%. In addition, the “% visual injury, Ob” value in assay [4] stood at 0%; in assay [5] (alone, 35 g/ha), 0%. Moreover, the “% visual injury, observed (Ob)” value in assay [2] (safener alone 2.5 g/ha), in assay [2] (safener alone 5 g/ha), in assay [2] (safener alone 10 g/ha), in assay [2] (safener alone 20 g/ha), in assay [5] (safener alone 2.5 g/ha) and in assay [5] (safener alone 5 g/ha) was 0% in each case. The “% visual injury, observed (Ob)” value in assay [5] (safener alone 10 g/ha) and in assay [5] (safener alone 20 g/ha) was 0% in each case.

As to `Nc1c(F)c(-c2ccc3cc[nH]c3c2F)nc(C(=O)O)c1Cl` [compound 1], the “% visual injury, observed (Ob)” value in assay [2] (compound 1 alone 20 g/ha) is listed as 98%; in assay [2] (compound 1 alone 40 g/ha) it was 100%; in assay [5] (compound 1 alone 20 g/ha), 18%; in assay [5] (compound 1 alone 40 g/ha) it was 68%.

For `Nc1c(F)c(-c2ccc3cc[nH]c3c2F)nc(C(=O)OCc2ccccc2)c1Cl` [compound 2], the entries for the “% visual injury, observed (Ob)” value in assay [6] (compound 2 35 + CQC-m 0 g/ha), in assay [6] (compound 2 70 + CQC-m 0 g/ha) and in assay [6] (compound 2 140 + CQC-m 0 g/ha) were 100%, 97% and 98%, respectively. Besides, the “% visual injury, Ob” value in assay [4] was 100%.

As to `Nc1cc(-c2ccc3cc[nH]c3c2F)nc(C(=O)O)c1Cl` [compound 15], the “% visual injury, Ob” value was determined as 0% in assay [3] (VIOTR, compound 4.375 g/ha, CQC-m 0 g/ha); 10% in assay [3] (VIOTR, compound 8.75 g/ha, CQC-m 0 g/ha); 10% in assay [3] (VIOTR, compound 17.5 g/ha, CQC-m 0 g/ha); 20% in assay [3] (VIOTR, compound 35 g/ha, CQC-m 0 g/ha); 30% in assay [3] (VIOTR, compound 70 g/ha, CQC-m 0 g/ha).
